According to patent publication US7138543B2, “Thiolalkyl benzoic acid derivatives” (Guilford Pharmaceuticals Inc., priority 2001, dated 2006):

Key:
[1] = system: rats with unilaterally transected optic nerve; experiment: Optic nerve transection (optic nerve fiber counting); assay type: in vivo, Rattus norvegicus; conditions: for FIBER NUMBER: 10 mg/kg daily intraperitoneal
Experimental: (§1) All experiments complied with the Association for Research in Vision and Ophthalmology Statement for the Use of Animals in Ophthalmic and Vision Research. 82 male Brown Norway rats (Rattus norvegicus), each weighing approximately 250 gm, were treated using procedures approved by the Animal Care Committee of the Johns Hopkins University School of Medicine. The rats were housed with a 12 hour light/12 hour dark cycle and fed ad libitum.
OPTIC NERVE TRANSECTION: The optic nerve was transected unilaterally in 26 rats under intraperitoneal pentobarbital anesthesia. The conjunctiva was opened with scissors and the optic nerve exposed by traction on extraocular muscles. The transection was performed with microscissors 5 mm posterior to the globe, with specific attention to avoidance of injury to major ocular blood vessels. Immediately after transection, the retina was examined ophthalmoscopically to assure that the retinal arterial blood supply was not disrupted. The conjunctiva was closed with absorbable suture and the eye dressed with antibiotic ointment. Beginning on the day of transection, the rats were treated daily with intraperitoneal injections of either a vehicle (9 rats with 50 mM HEPES-buffered saline) or a NAALADase inhibitor (8 rats with 10 mg/kg of Compound A and 9 rats with 10 mg/kg of Compound B). 5 saline treated rats, 3 Compound A treated rats, and 4 Compound B treated rats were sacrificed at 2 weeks, and the remaining rats at 4 weeks, after transection.
(§2) OPTIC NERVE COUNTING: The rats were sacrificed by exsanguination under deep pentobarbital anesthesia. They were perfused through the heart with 2% paraformaldehyde/2% glutaraldehyde in 0.1 M phosphate buffer, pH 7.2, and the eyes with attached optic nerves were removed. A cross-section of the optic nerve from both experimental (glaucoma or transection) and control eyes was removed 1.5 mm posterior to the globe, 1 mm in thickness, and post-fixed in 2% osmium tetroxide in buffer. These were processed into epoxy resin, sectioned at 1 micron and stained with toluidine blue.
(§3) The area of the optic nerve cross-section was measured by outlining its outer border at 10× magnification on an image analysis system (Universal Imaging Corp., Westchester, Pa.) with Synsys digital camera and Metamorph software. Three area measurements were taken and the mean value was determined. To measure the density and fiber diameter distributions, images were captured with a 100× phase contrast objective from 10 different areas of each nerve. These were edited to eliminate non-neural objects and the size of each axon internal to the myelin sheath (its minimum diameter) and the density of axons/square mm were calculated for each image and nerve. The mean density was multiplied by total nerve area to yield fiber number for each nerve. The total fiber number in glaucoma or transection nerves was compared to the normal, fellow eye of each rat to yield a percent loss value. The number of axons counted among the 10 images was an approximately 20% sample of the 80–90,000 axons in normal rat nerves. The person measuring axon number was masked to the protocol conducted on the nerves.

[2] = system: rats with unilateral elevation of intraocular pressure; experiment: Experimental rat glaucoma (IOP elevation, optic nerve fiber counting); assay type: in vivo; conditions: for FIBER NUMBER: 10 mg/kg daily intraperitoneal; for PERCENT DIFFERENCE in fiber number between glaucoma and normal eye: positive value indicates fewer fibers in the glaucoma eye
Experimental: Protective Effect of NAALADase Inhibitors in Experimental Rat Glaucoma
as §1
EXPERIMENTAL GLAUCOMA: Unilateral elevation of intraocular pressure (“IOP”) was produced in 56 rats by microinjection of hypertonic saline into episcleral veins, following procedures described in Morrison, J. et al., IOVS (March 1998) 39:526–531. Beginning on the day of IOP elevation, the rats were treated daily with intraperitoneal injections of either a vehicle (23 rats with 50 mM HEPES-buffered saline) or a NAALADase inhibitor (11 rats with 10 mg/kg of Compound A and 22 rats with 10 mg/kg of Compound B). 11 saline treated rats, 11 Compound A treated rats and 11 Compound B treated rats were sacrificed at 8 weeks, and the remaining rats at 12 weeks, after initial IOP elevation.
as §2, §3

[3] = system: transgenic HD mice of the N171-82Q strain; experiment: Huntington's disease transgenic mouse model: rotarod and locomotion; assay type: in vivo
Experimental: Neuroprotective Effect of NAALADase Inhibitors in Transgenic Mouse Model of Huntington's Disease Behavioral Testing (Rotarod) Transgenic HD mice of the […]-[…] strain and non-transgenic littermates were treated with NAALADase inhibitor Compound B (30 mg/kg) or a vehicle from 10 weeks of age. The mice were placed on a rotating rod (“rotarod”). The length of time at which the mouse fell off the rotarod was recorded as a measure of motor coordination. […] The treatment with Compound B had no effect on the rotarod performance of normal non-HD mice. The total distance traveled by the mice was also recorded as a measure of overall locomotion.

[4] = system: transgenic HD mice (N171-82Q); experiment: Huntington's disease transgenic mouse model: survival; assay type: in vivo
Experimental: The effects of Compound B and vehicle on the survival of transgenic HD mice (N171-82Q) were evaluated. Thirteen mice (six male and seven female) were assigned to the Compound B treatment group, and fourteen mice (six male and eight female) were assigned to the vehicle treatment group. Treatment was continued until all the mice died.

[5] = system: chronic constrictive injury-induced rats; experiment: Neuropathic pain in CCI model (sciatic nerve ligation); assay type: in vivo
Experimental: In vivo Assay of NAALADase Inhibitors on Neuropathic Pain in CCI Model
Sciatic nerve ligation, consisting of 4 ligatures tied loosely around the sciatic nerve at 1 mm intervals proximal to the nerve trifurcation, was performed on rats. […] The rats were habituated to a Hargreaves apparatus. An infrared heat source was directed onto the dorsal surface of each rat's hindpaws and the time taken for the rat to withdraw its paws was noted. The difference in scores between the latency of the response for the paw on the operated side versus the paw on the unoperated control side was determined.

[6] = system: rats subjected to middle cerebral artery occlusion; experiment: Neuroprotective effect with TGF-β neutralizing antibodies in MCAO rats; assay type: in vivo; conditions: FIG. 5
From the text: The effect of TGF-β neutralizing antibodies on the neuroprotective effect of Compound C was also studied in rats following MCAO.
One of ordinary skill in the art can appreciate that the regulation of TGF-β's by NAALADase inhibitors may have implications not only in stroke, but also in other diseases, disorders and conditions including, without limitation, neurological diseases, psychiatric diseases, demyelinating diseases, prostate cancer, inflammation, diabetes and angiogenesis.

[7] = system: TGF-β1; experiment: TGF-β1 levels by microdialysis in MCAO rats; assay type: in vivo; conditions: during occlusion and reperfusion, FIG. 6
[8] = system: TGF-β1; experiment: Effect on TGF-β1 in in vitro ischemia model; assay type: cell-based; conditions: ischemic cell cultures, FIG. 1
Experimental: (§4) Effect of NAALADase Inhibition on TGF-β in In vitro Ischemia Model Compound C was added to ischemia cell cultures to determine its effect on TGF-β levels during stroke.

[9] = system: TGF-β2; experiment: Effect on TGF-β2 in in vitro ischemia model; assay type: cell-based; conditions: ischemic cell cultures, FIG. 2
Experimental: as §4

[10] = system: ischemic cell cultures; experiment: Neuroprotective effect with growth factor neutralizing antibodies in in vitro ischemia model; assay type: cell-based
Experimental: TGF-β neutralizing antibodies were then added to the ischemic cell cultures.

[11] = 2 weeks survival after transection
[12] = 4 weeks survival after transection

O=C(O)CCC(CCCS)C(=O)O (stereo not drawn) [Compound B, 2-(3-sulfanylpropyl)pentanedioic acid]
remaining axons relative to the saline-treated rats ([1]; 2 weeks after transection): twice | PERCENT DIFFERENCE in fiber number [1, 11]: 75.3 ± 14.8% | FIBER NUMBER [1, 11]: 19,550 ± 11,383 | PERCENT DIFFERENCE in fiber number [1, 12]: 93.4 ± 6.2% | FIBER NUMBER [1, 12]: 5,162 ± 5,017 | FIBER NUMBER ([2]; 8 week group): 80785 ± 2121 | PERCENT DIFFERENCE in fiber number between glaucoma and normal eye ([2]; 8 week group): −0.82 ± 2.97% | FIBER NUMBER ([2]; 12 week group): 90504 ± 1718 | PERCENT DIFFERENCE in fiber number between glaucoma and normal eye ([2]; 12 week group): −3.21 ± 2.86% | rotarod performance ([3]; normal non-HD mice, 30 mg/kg): no effect | rotarod performance (time on rotarod) ([3]; transgenic HD mice, 30 mg/kg from 10 weeks of age, vs vehicle, FIG. 33): stayed longer on the rotarod | survival time ([4]; female transgenic HD mice, vs vehicle, p-value=0.03, FIG. 37): significantly prolonged survival time | median survival time ([4]; transgenic HD mice, all, vehicle 158.5 days, p-value=0.07, FIG. 35): 184 days

O=C(O)CCC(CP(=O)(O)O)C(=O)O (stereo not drawn) [Compound C, 2-(phosphonomethyl)pentanedioic acid]
withdrawal latency difference scores between operated and unoperated paws ([5]; 50 mg/kg i.p. daily starting 10 days post surgery, FIG. 8): dramatically normalized the difference scores | start of significant effect on difference scores ([5]; 50 mg/kg i.p. daily, persisted to end of study (21 days of daily dosing)): 11 days of drug treatment | neuroprotective effect in presence of TGF-β neutralizing antibodies [6]: significantly attenuated the neuroprotective effect | TGF-β1 levels [7]: significant rise in TGF-β1 levels | TGF-β1 concentration [8]: increased concentration | TGF-β2 concentration [9]: increased concentration | neuroprotective effect in presence of TGF-β neutralizing antibodies ([10]; FIG. 3): blocked the neuroprotective effect | neuroprotective effect in presence of FGF antibody ([10]; FIG. 4): did not block the neuroprotective effect
